Test results: patent US20230301966A1, “METHOD OF ENHANCING 5-HYDROXYTRYPTOPHAN (5-HTP) EXPOSURE” (Evecxia Therapeutics, Inc., priority 2021, published 2023)
Like-named read-outs stand apart in the source and are kept apart here.

How the values were obtained:
[1] = cited from earlier work
[2] = Single-dose pharmacokinetic evaluation of gastroretentive tablets in human healthy volunteers (Example 5); format: in vivo; details: plasma, oral, 250 mg, single administration, high-fat meal
Description: The “fast” 5-HTP (250 mg) / low-dose carbidopa (0.625 mg, 2.5 mg, 5 mg, or 15 mg) gastroretentive tablets were administered orally to subjects from a cohort totaling 16 healthy subjects in a 5-period open label pharmacokinetics study. The subjects’ mean age was ~50 years (33 to 60 years). All were Caucasian, 11 males, 5 females. Average weight was ~80 kg and all body mass index (BMI) < 32.0 kg/m^2. The subjects were admitted to a clinic during the study. The swelling layer of the tablets was radiolabelled with ≤1 MBq ^111In to allow for parallel scintigraphic location of the tablets in the gastrointestinal tract. The tablets were administered in the morning, one tablet per administration, after ingestion of≥80% of the breakfast. Tablets were administered with 210 mL water followed by a radiolabelled drink (radiocontrast) containing NMT 4 MBq technetium-99m-diethylene triaminepentaacetic acid (99mTc-DTPA) in 30 mL of water. […]
In the first 4 periods, the tablets were administered after a standardized FDA high-fat, high-calorie meal (FDA, 2022), in order of increasing doses of carbidopa. […] The 5-HTP and carbidopa in the plasma were analyzed by liquid-chromatography-mass spectrometry. […]
Carbidopa plasma was below lower limit of quantification (1 ng/ml) at all timepoints at the 0.625 mg carbidopa dose strength, and for most time points at the 2.5 mg carbidopa dose strength. […]

[3] = PK simulation to steady-state at twice-daily dosing by non-parametric superposition (NPS); design: species or system human; details: plasma 5-HTP, steady-state at twice-daily administration
Description: Given this T½ for 5-HTP and the known metabolism of 5-HTP by AAAD, non-parametric superpositioning (NPS) pharmacokinetic modeling can be applied to predict steady-state 5-HTP plasma exposure. NPS is an established method known in the field to generally predict steady-state plasma levels of an active pharmaceutical compound. NPS assumes that each dose of an active pharmaceutical compound is metabolized independently of other doses; that the rate and extent of absorption and average systemic clearance are the same for each dosing interval; and that linear pharmacokinetics apply. Based on NPS, the steady-state 5-HTP plasma exposure would be expected to be about 0.25-fold higher (to total about 1.25-fold) than that observed after single-administration. Further, given the T½, steady-state plasma exposure would, according to standard assumptions, be expected to be reached within 5-6 half-lives, i.e., about 1 day.
Plasma pharmacokinetics parameters were estimated using standard Phoenix WinNonlin methods. Data are presented as geometric mean ± SEM. The 5-HTP plasma profiles after single tablet administration of “fast” 5-HTP (250 mg) / low-dose carbidopa (15 mg) tablets following either an FDA high-fat high-calorie meal versus after an FDA moderate-fat, moderate-calorie meal are shown in FIG. 6B. […]

[4] = cited from earlier work; remark: listed apart in the source
[5] = Excipient compatibility of 5-HTP and carbidopa blends, storage at 40° C; format: physicochemical; details: for 5-HTP Impurities at T= 1 month (%) Total / Carbidopa Impurities at T= 1 month (%) Total / 5-HTP Impurities at T= 1 month (%) LSI / Carbidopa Impurities at T= 1 month (%) LSI: 1 month at 40° C; for 5-HTP Impurities at T=7 (%) Total / Carbidopa Impurities at T=7 (%) Total / 5-HTP Impurities at T=7 (%) LSI / Carbidopa Impurities at T=7 (%) LSI: 7 days at 40° C; for 5-HTP Impurities at T= 1 month (%) LSI / Carbidopa Impurities at T= 1 month (%) LSI / 5-HTP Impurities at T=7 (%) LSI / Carbidopa Impurities at T=7 (%) LSI / 5-HTP Impurities at T=0 (%) LSI / Carbidopa Impurities at T=0 (%) LSI: largest single impurity
Description: Excipient compatibility studies were performed to examine the stability of 5-HTP and carbidopa mixed together, either the two APIs alone or in the presence of one or two excipients. The stability (assay and level of impurities) was tested using small aliquots of 5-HTP (300 mg) and carbidopa (25 mg) blended together, with or without together excipients. The API/excipient ratios were based on the approximate composition of gastroretentive tablets of 5-HTP and carbidopa in Table 1. There were no significant increases in the levels of impurities for any of the API/excipient(s) combinations at T=0, 7 days and 1 month of storage at 40° C. The maximum percentage increase (largest single impurity) for carbidopa was 0.44%, 0.55%, and 0.86% at T=0, 7 days and 1 month, respectively. The maximum percentage increase for 5-HTP was 0.27%, 0.48%, and 0.49% at T=0, 7 days and 1 month, respectively.

SMILES | aqueous solubility [4] | 5-HTP Impurities at T= 1 month (%) Total [5] [%] | Carbidopa Impurities at T= 1 month (%) Total [5] [%] | 5-HTP Impurities at T=7 (%) Total [5] [%] | Carbidopa Impurities at T=7 (%) Total [5] [%] | 5-HTP Impurities at T=0 (%) Total [5] [%] | Carbidopa Impurities at T=0 (%) Total [5] [%] | 5-HTP Impurities at T= 1 month (%) LSI [5] [%] | Carbidopa Impurities at T= 1 month (%) LSI [5] [%] | 5-HTP Impurities at T=7 (%) LSI [5] [%] | Carbidopa Impurities at T=7 (%) LSI [5] [%] | 5-HTP Impurities at T=0 (%) LSI [5] [%] | Carbidopa Impurities at T=0 (%) LSI [5] [%] | other results
N[C@@H](Cc1ccc(O)c(O)c1)C(=O)O [L-DOPA] |  |  |  |  |  |  |  |  |  |  |  |  |  | time for L-DOPA plasma exposure to reach steady-state ([1]; L-DOPA/carbidopa therapy, 600-1200 mg/day and 120-150 mg/day): less than 12 h
N[C@@H](Cc1c[nH]c2ccc(O)cc12)C(=O)O [Sample 5-HTP, 5-hydroxytryptophan] | ~ 15 mg/ml |  |  |  |  |  |  |  |  |  |  |  |  | half-life ([2]; read-out: Elimination half-life (Average) 5-HTP (converted)): 2.9 h; Tmax ([2]; read-out: TMax (Average) 5-HTP): 1 h; Relative steady-state average plasma exposure (average ng/ml gastroretentive /average ng/ml immediate release) [3]: 1; 5-HTP plasma exposure ([1]; 200 mg/day carbidopa with 1,150-2,900 mg/day 5-HTP, separate IR dosage forms, after 8-54 months (Magnussen and Van Woert, 1982b)): 2,000-10,000 ng/ml; Tmax ([1]; native 5-HTP immediate release): ~ 1 h; half-life T½ ([1]; native 5-HTP immediate release): ~ 2 h; oral bioavailability ([1]; native 5-HTP immediate release, one study (WO2019245925)): ~ 20%; bioavailability in the colon ([1]; one study (WO2019245925)): ~ 4%; bioavailability in the upper intestine ([1]; one study (WO2019245925)): ~ 20%
N[C@@H](Cc1c[nH]c2ccc(O)cc12)C(=O)O [Sample 17, 5-HTP (control)] |  | 0.26 | 0.00 | 0.23 | 0.00 | 0.23 | 0.00 | 0.12 | 0.00 | 0.12 | 0.00 | 0.13 | 0.00 | 
C[C@@](Cc1ccc(O)c(O)c1)(NN)C(=O)O [Sample 18, Carbidopa (control)] |  | 0.00 | 0.79 | 0.00 | 0.45 | 0.00 | 0.41 | 0.00 | 0.27 | 0.00 | 0.28 | 0.00 | 0.27 | 
C[C@@](Cc1ccc(O)c(O)c1)(NN)C(=O)O [carbidopa] | ~ 1.5 mg/ml |  |  |  |  |  |  |  |  |  |  |  |  | T½ ([1]; known value): 1 to 2 h
